Results on 19 compounds are retold here after PubChem BioAssay AID268 (DTP/NCI, 2004).

“And” between values parts separate entries of the source, which are not always exact repeats. Equal values may be shown once.

The subject of this assay is CD2F1 mice, P1798 lymphosarcoma sc, tumor weight T/C. The experiment in a line: NCI In Vivo Anticancer Drug Screen. Data for tumor model P1798 Lymphosarcoma (subcutaneous) in CD2F1 (CDF1) mice. Conditions: endpoint: mean tumor weight, higher = larger tumour. The protocol:
The antitumor activity of compounds was measured in mice bearing transplantable tumors. Survival or tumor size were measured and the results are expressed as the measurement made in the treated group (T) divided by the measurement made in the vehicle treated control group (C). The tumor model used in this assay is P1798 Lymphosarcoma (subcutaneous) in CD2F1 (CDF1) mice

The mark [1] stands for this setting: dose: 250.0 mg/kg/injection, schedule: Q01DX010 (sc), vehicle: steriod suspending solution.
The mark [2] stands for this setting: dose: 500.0 mg/kg/injection, schedule: Q01DX010 (sc), vehicle: steriod suspending solution.
The mark [3] stands for this setting: dose: 200.0 mg/kg/injection, schedule: Q01DX010 (ip), vehicle: saline.
The mark [4] stands for this setting: dose: 12.5 mg/kg/injection, schedule: Q01DX010 (ip), vehicle: saline.
The mark [5] stands for this setting: dose: 25.0 mg/kg/injection, schedule: Q01DX010 (ip), vehicle: saline.
The mark [6] stands for this setting: dose: 50.0 mg/kg/injection, schedule: Q01DX010 (ip), vehicle: saline.
Where [7] appears, read: dose: 100.0 mg/kg/injection, schedule: Q01DX010 (ip), vehicle: saline.
The mark [8] stands for this setting: dose: 400.0 mg/kg/injection, schedule: Q01DX010 (ip), vehicle: saline.
The mark [9] stands for this setting: dose: 5.0 mg/kg/injection, schedule: Q01DX010 (ip), vehicle: saline.
[10] abbreviates: dose: 10.0 mg/kg/injection, schedule: Q01DX010 (ip), vehicle: saline.
The mark [11] stands for this setting: dose: 20.0 mg/kg/injection, schedule: Q01DX010 (ip), vehicle: saline.
Setting [12] is: dose: 6.25 mg/kg/injection, schedule: Q01DX010 (ip), vehicle: saline.

A word on the T/C: it is the ratio of treated to control. Take `CCC(=O)O[C@H]1CC[C@H]2[C@@H]3CC[C@H]4CC(=O)[C@H](C)C[C@]4(C)[C@H]3CC[C@]12C`: the T/C reads like this: (dose: 15.6 mg/kg/injection, schedule: Q01DX010 (sc), vehicle: steriod suspending solution) 110 % of control; (dose: 31.3 mg/kg/injection, schedule: Q01DX010 (sc), vehicle: steriod suspending solution) 120 % of control; (dose: 62.5 mg/kg/injection, schedule: Q01DX010 (sc), vehicle: steriod suspending solution) 112 % of control; (dose: 125.0 mg/kg/injection, schedule: Q01DX010 (sc), vehicle: steriod suspending solution) 91 % of control and 77 % of control; under setting [1], 88 % of control; under setting [2], 96 % of control. Also, the T/C (dose: 1000.0 mg/kg/injection, schedule: Q01DX010 (sc), vehicle: steriod suspending solution) was 88 % of control.
Take `CN(C)CC(=O)c1ccc(O)c(O)c1`: the T/C under setting [3] was 122 % of control; the T/C (dose: 300.0 mg/kg/injection, schedule: Q01DX010 (ip), vehicle: saline) was 105 % of control; the T/C (dose: 450.0 mg/kg/injection, schedule: Q01DX010 (ip), vehicle: saline) was 72 % of control; the T/C (dose: 675.0 mg/kg/injection, schedule: Q01DX010 (ip), vehicle: saline) was 80 % of control.
For `CCCCCC(=O)O[C@]1(C(C)=O)CC[C@H]2[C@@H]3CCC4=CC(=O)CC[C@]4(C)[C@H]3CC[C@@]21C`, the T/C reads like this: under setting [1], 110 % of control; (dose: 375.0 mg/kg/injection, schedule: Q01DX010 (sc), vehicle: steriod suspending solution) 106 % of control; under setting [2], 114 % of control; (dose: 750.0 mg/kg/injection, schedule: Q01DX010 (sc), vehicle: steriod suspending solution) 109 % of control.
Regarding `Nc1nc2n[nH]nc2c(=O)[nH]1`, the T/C (dose: 25.0 mg/kg/injection, schedule: Q01DX010 (ip), vehicle: alkali diluted with saline) was 119 % of control; the T/C (dose: 50.0 mg/kg/injection, schedule: Q01DX010 (ip), vehicle: alkali diluted with saline) is 64 % of control; the T/C (dose: 100.0 mg/kg/injection, schedule: Q01DX010 (ip), vehicle: alkali diluted with saline) was 42 % of control and 49 % of control; the T/C (dose: 200.0 mg/kg/injection, schedule: Q01DX010 (ip), vehicle: alkali diluted with saline) was 15 % of control and 29 % of control; the T/C (dose: 400.0 mg/kg/injection, schedule: Q01DX010 (ip), vehicle: alkali diluted with saline) is 2 % of control.
`COc1ccc2cc3[n+](cc2c1OC)CCc1cc2c(cc1-3)OCO2`: the T/C (dose: 12.0 mg/kg/injection, schedule: Q01DX011 (ip), vehicle: saline) is 75 % of control.
For the compound `CCN(CC)CCNc1ccc(C)c2sc3ccccc3c(=O)c12`, the T/C runs as follows: under setting [4], 76 % of control; under setting [5], 31 % of control and 43 % of control; under setting [6], 10 % of control and 29 % of control; under setting [7], 10 % of control.
With `OCC1OC(n2cnc3c(Cl)ncnc32)C(O)C1O` (stereo unspecified), the T/C (dose: 250.0 mg/kg/injection, schedule: Q01DX010 (ip), vehicle: saline) is 95 % of control and 103 % of control.
As to `N#CCCCCCNC(=O)CCCCC(=O)NCCCCCC#N`, the T/C runs as follows: under setting [7], 85 % of control; under setting [3], 111 % of control; under setting [8], 87 % of control.
Regarding `Cc1cc(N(CCCl)CCCl)ccc1N=Nc1ccccc1C(=O)O`, the T/C under setting [9] was 72 % of control and 79 % of control; the T/C under setting [10] was 16 % of control and 23 % of control; the T/C under setting [11] was 10 % of control.
Consider `CCc1c(CC(=O)O)c2cc(C)ccc2n1Cc1ccc(Cl)cc1`, for which the T/C under setting [4] was 120 % of control, the T/C under setting [5] was 87 % of control and the T/C under setting [6] is 54 % of control.
As for `S=c1nc[nH]c2nc[nH]c12`, the T/C (dose: 10.0 mg/kg/injection, schedule: Q01DX010 (ip), vehicle: alkali diluted with saline) was 90 % of control and the T/C (dose: 80.0 mg/kg/injection, schedule: Q01DX010 (ip), vehicle: alkali diluted with saline) is 35 % of control.
For `c1ccc(COCC[P+](c2ccccc2)(c2ccccc2)c2ccccc2)cc1`, the T/C was 76 % of control (dose: 3.0 mg/kg/injection, schedule: Q01DX010 (ip), vehicle: saline); 98 % of control under setting [9]; 88 % of control (dose: 8.0 mg/kg/injection, schedule: Q01DX010 (ip), vehicle: saline); 33 % of control (dose: 12.0 mg/kg/injection, schedule: Q01DX010 (ip), vehicle: saline).
Consider `NC(Cc1c[nH]c2ccc(N(CCCl)CCCl)cc12)C(=O)O` (stereo unspecified), for which the T/C was 106 % of control (dose: 0.25 mg/kg/injection, schedule: Q01DX010 (ip), vehicle: saline); 97 % of control (dose: 0.5 mg/kg/injection, schedule: Q01DX010 (ip), vehicle: saline); 40 % of control (dose: 1.0 mg/kg/injection, schedule: Q01DX010 (ip), vehicle: saline); 13 % of control (dose: 2.0 mg/kg/injection, schedule: Q01DX010 (ip), vehicle: saline).
On to `CC(=O)NCCCCCCNC(C)=O`, for which the T/C is, setting by setting: under setting [6], 112 % of control; under setting [7], 95 % of control; under setting [3], 119 % of control; under setting [8], 86 % of control.
Consider `NC(N)=NCCCC(N)C(=O)NCCCCCCNC(=O)C(N)CCCN=C(N)N` (stereo unspecified), for which the T/C under setting [5] is 94 % of control, the T/C under setting [6] is 85 % of control, the T/C under setting [7] was 99 % of control and the T/C under setting [3] is 90 % of control.
With `C[C@H]1C(=O)O[C@@H]2CCN3CC=C(COC(=O)[C@](C)(O)[C@@]1(C)O)[C@H]23`, the T/C (dose: 3.13 mg/kg/injection, schedule: Q01DX010 (ip), vehicle: saline) was 74 % of control and 79 % of control; the T/C under setting [12] is 77 % of control; the T/C under setting [4] was 62 % of control and 80 % of control.
On to `NCCCCC(N)C(=O)NCCCCCCCCCCNC(=O)C(N)CCCCN` (stereo unspecified), for which the T/C reads like this: under setting [12], 106 % of control; under setting [4], 99 % of control; under setting [5], 122 % of control; under setting [6], 107 % of control.
As to `CN(Cc1cnc2nc(N)nc(N)c2n1)c1c(Cl)cc(C(=O)NC(CCC(=O)O)C(=O)O)cc1Cl` (stereo unspecified), the T/C reads like this: under setting [10], 33 % of control; under setting [11], 12 % of control.
As for `CSc1ncnc2nc[nH]c12`, the T/C runs as follows: under setting [5], 100 % of control and 78 % of control; under setting [6], 81 % of control and 86 % of control; under setting [7], 94 % of control and 70 % of control; under setting [3], 61 % of control and 64 % of control.
